Where two headings read alike, the source gives them in different places. Where a SMILES comes first, the peptide text is derived from it. Where no end group is shown, it is not given here. [ ]: non-standard residue; d: D form. Nle = CCCC[C@H](N)C(=O)O
T1: full-length mGPR116 (HEK293 clone 3C) (Mus musculus, UniProt G5E8Q8)
T1 construct: expressed in transfected cells
T1 sequence (G5E8Q8 22-1348): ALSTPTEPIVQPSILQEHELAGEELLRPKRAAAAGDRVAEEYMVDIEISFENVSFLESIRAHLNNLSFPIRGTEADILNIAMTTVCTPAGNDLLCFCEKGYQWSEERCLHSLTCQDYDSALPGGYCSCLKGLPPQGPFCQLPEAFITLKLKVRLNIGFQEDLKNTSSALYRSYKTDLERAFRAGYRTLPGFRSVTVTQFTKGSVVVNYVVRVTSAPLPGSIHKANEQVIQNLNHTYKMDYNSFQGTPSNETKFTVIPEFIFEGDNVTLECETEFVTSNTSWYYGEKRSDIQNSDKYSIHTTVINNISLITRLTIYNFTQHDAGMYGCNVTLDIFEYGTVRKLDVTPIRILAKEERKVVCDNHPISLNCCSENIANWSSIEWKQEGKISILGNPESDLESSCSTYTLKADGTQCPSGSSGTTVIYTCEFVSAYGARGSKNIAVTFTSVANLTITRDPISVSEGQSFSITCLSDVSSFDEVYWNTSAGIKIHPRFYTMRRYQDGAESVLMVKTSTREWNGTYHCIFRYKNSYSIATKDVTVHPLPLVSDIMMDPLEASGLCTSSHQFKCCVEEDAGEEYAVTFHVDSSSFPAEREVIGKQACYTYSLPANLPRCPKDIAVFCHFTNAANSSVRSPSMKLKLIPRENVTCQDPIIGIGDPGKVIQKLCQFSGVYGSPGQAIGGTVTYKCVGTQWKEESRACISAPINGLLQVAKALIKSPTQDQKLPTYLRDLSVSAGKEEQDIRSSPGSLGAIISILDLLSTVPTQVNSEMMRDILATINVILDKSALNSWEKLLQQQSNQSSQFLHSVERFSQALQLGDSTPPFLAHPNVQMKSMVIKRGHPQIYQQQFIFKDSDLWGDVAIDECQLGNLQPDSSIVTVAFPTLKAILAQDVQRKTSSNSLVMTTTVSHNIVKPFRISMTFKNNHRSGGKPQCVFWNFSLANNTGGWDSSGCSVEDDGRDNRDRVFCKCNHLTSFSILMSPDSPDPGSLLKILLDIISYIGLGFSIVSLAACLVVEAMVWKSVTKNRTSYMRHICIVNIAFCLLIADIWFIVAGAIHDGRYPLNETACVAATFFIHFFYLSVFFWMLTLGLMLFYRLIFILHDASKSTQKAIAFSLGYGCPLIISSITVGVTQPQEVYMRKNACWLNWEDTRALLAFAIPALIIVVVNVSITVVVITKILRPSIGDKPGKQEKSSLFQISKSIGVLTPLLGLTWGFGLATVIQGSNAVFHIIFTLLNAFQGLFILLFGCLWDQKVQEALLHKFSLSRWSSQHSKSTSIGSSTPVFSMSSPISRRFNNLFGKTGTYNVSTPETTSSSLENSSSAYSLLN

T2: full-length hGPR116 (HEK293 clone A6) (Homo sapiens, UniProt Q8IZF2)
T2 construct: expressed in transfected cells
T2 sequence (Q8IZF2 22-1346): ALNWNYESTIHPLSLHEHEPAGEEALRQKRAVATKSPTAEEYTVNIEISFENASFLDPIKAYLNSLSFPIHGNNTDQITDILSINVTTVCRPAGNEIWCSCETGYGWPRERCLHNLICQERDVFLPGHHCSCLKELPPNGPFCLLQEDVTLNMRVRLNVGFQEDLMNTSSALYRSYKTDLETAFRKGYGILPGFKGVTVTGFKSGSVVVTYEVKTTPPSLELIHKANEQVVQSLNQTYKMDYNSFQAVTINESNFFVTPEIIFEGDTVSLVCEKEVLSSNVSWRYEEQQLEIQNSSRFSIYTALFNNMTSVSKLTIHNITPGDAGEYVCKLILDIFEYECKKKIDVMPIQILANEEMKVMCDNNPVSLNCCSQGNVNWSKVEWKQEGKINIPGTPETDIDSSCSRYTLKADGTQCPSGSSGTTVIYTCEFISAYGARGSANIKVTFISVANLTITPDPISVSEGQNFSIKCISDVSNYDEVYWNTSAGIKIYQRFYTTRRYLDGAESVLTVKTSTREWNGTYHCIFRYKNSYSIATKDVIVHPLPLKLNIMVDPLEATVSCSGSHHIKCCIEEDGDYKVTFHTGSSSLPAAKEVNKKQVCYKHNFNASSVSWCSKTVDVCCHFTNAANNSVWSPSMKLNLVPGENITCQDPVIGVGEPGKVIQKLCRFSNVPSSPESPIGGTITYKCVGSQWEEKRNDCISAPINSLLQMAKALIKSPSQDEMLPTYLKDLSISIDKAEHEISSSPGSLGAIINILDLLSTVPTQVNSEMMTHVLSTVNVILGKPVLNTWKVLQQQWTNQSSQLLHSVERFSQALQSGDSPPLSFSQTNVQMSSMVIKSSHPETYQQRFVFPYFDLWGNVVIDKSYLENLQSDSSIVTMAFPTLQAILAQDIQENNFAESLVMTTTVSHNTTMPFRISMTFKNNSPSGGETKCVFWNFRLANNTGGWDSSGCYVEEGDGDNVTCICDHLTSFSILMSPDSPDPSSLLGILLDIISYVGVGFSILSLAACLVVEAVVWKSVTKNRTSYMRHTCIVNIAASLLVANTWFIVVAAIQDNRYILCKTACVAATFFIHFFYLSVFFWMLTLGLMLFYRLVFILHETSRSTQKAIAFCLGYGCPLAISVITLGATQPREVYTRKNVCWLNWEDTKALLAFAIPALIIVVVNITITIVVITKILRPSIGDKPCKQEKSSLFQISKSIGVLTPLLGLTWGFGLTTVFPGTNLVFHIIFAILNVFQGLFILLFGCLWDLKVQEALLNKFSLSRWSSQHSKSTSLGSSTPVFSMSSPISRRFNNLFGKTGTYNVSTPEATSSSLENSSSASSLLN

T3: mouse GPR116 full-length, V5 tagged, clone 1D8 (mouse) (UniProt G5E8Q8)
T3 sequence: T1 sequence (G5E8Q8 22-1348)


Experiments:
[1] = biological target: T1, full-length mGPR116 (HEK293 clone 3C); experiment: Calcium transient assay, full-length mGPR116 stably expressed in HEK293 (clone 3C); type: cell-based; conditions: for activation of the mouse full-length receptor (in words): calcium flux assays, Figure 3F
Procedure: (§1) For some constructs, stable populations were generated by treating the cells with G418. After complete selection of resistant cells, these were used in assays. Stable HEK293 clones for full-length hGPR116 (clone A6) and mGPR116 (clone 3C) were described earlier ([Brown et al., 2017]).
(§2) HEK293 cells were seeded in 384-well plates (Greiner, #781946) at 30,000 cells/well. Medium was removed the following day and cells were loaded for 2 hr at 37°C, 5% CO2 with 20 µl Calcium 6 loading buffer (Molecular Devices, Cat# R8191): 1× HBSS (Gibco, Cat# 14065.049) containing 20 mM HEPES (Gibco, Cat#15630) and 2.5 mM probenecid (Sigma, Cat# P8761). Plates were then transferred to a FDSS7000 fluorescence plate reader (HAMAMATSU, Japan) and Ca^2+ responses were measured in real time using a CCD camera with excitation 480 nm/emission 540 nm. Prior to stimulation, baseline measurements were recorded over 5 s (Fmin). For stimulation, 20 µl of test compounds prepared 2× in HBSS containing 20 mM HEPES were dispensed. Fluorescence was read over 1–1.5 min. Maximum fluorescence (Fmax) was determined and normalized to baseline. Data are reported as ∆F/F = (Fmax – Fmin)/Fmin. Adequate response of the endogenous M3R was verified for each transfection, using carbachol at 100 µM and following the same procedure as for the peptide activation.
(§3) Concentration response curves were analyzed using GraphPad Prism 9.2.0. Potency was determined using a nonlinear regression model with variable slope, and statistical significance was determined using a one-way ANOVA followed by Dunnett’s multiple comparison test or a TTEST for comparison of two data sets (*p<0.05, **p<0.01, ***p<0.001, ****p<0.0001, ns, not significant).

[2] = biological target: T2, full-length hGPR116 (HEK293 clone A6); experiment: Calcium transient assay, full-length hGPR116 stably expressed in HEK293 (clone A6); type: cell-based; conditions: calcium transients, hFL clone A6, Figure 3-figure supplement 2 / Figure 7A
Procedure: as §1, §2, §3

[3] = biological target: T3, mouse GPR116 full-length, V5 tagged, clone 1D8 (mouse)

Molecule	activation of the mouse full-length receptor (in words) [1]	activation of the human full-length receptor (in words) [2]	EC50 of receptor activation (calcium transients), HEK293 cells stably expressing the receptor [3]	also measured
CCCC[C@H](NC(=O)[C@H](CC(C)C)NC(=O)[C@@H](NC(=O)[C@H](CO)NC(=O)[C@H](C)NC(=O)[C@H](CO)NC(=O)[C@@H](N)[C@@H](C)O)[C@@H](C)CC)C(=O)N[C@@H](CO)C(=O)N1CCC[C@H]1C(=O)N[C@@H](CC(=O)O)C(=O)O [GAP10-POS3] (H-TSASIL[Nle]SPD-OH; N-terminus and C-terminus assumed)	failed to activate	failed to activate		EC50 ([1]; calcium transient assay, HEK293 clone 3C, Fig 3F, independent experiment n=1 (mean of quadruplicate), read-out: EC50 (uM) n=1): > 100 µM; EC50 ([1]; calcium transient assay, HEK293 clone 3C, Fig 3F, independent experiment n=2 (mean of quadruplicate), read-out: EC50 (uM) n=2): > 100 µM; EC50 ([1]; calcium transient assay, HEK293 clone 3C, Fig 3F, independent experiment n=3 (mean of quadruplicate), read-out: EC50 (uM) n=3): > 100 µM; EC50 ([1]; calcium transient assay, HEK293 clone 3C, Fig 3F, mean of n=2-3 independent experiments, read-out: EC50 (uM) mean): > 100 µM
CCCC[C@H](NC(=O)[C@H](C)NC(=O)[C@@H](NC(=O)[C@H](CO)NC(=O)[C@H](Cc1ccccc1)NC(=O)[C@H](CO)NC(=O)[C@@H](N)[C@@H](C)O)[C@@H](C)CC)C(=O)N[C@@H](CO)C(=O)N1CCC[C@H]1C(=O)N[C@@H](CC(=O)O)C(=O)O [GAP10-POS6] (H-TSFSIA[Nle]SPD-OH; N-terminus and C-terminus assumed)	failed to activate	failed to activate		
TSFSILASPD [GAP10-POS7]	failed to activate	failed to activate		
TSFSILMSPD [GAP10]				EC50 (uM) n=1 ([1]; calcium transient assay, HEK293 clone 3C, Fig 3F, independent experiment n=1 (mean of quadruplicate)): 16.0 µM; EC50 (uM) n=2 ([1]; calcium transient assay, HEK293 clone 3C, Fig 3F, independent experiment n=2 (mean of quadruplicate)): 8.6 µM; EC50 (uM) n=3 ([1]; calcium transient assay, HEK293 clone 3C, Fig 3F, independent experiment n=3 (mean of quadruplicate)): 6.9 µM
TSFSIL[Nle]SPD [GAP10]			25 µM	
TSFSIL[Nle]SPDSPDP [GAP14]			107 µM	
PSFSIL[Nle]SPD [GAP10-Pro1]			17 µM	

Source: PMC9489211, “Regulation of pulmonary surfactant by the adhesion GPCR GPR116/ADGRF5 requires a tethered agonist-mediated activation mechanism” (eLife, 2022)
